Reference: ChEMBL document CHEMBL3045300, “Synthesis of photolabile lac-acetogenin for photoaffinity labeling of mitochondrial complex I” (J Pestic Sci, 2006)

Columns and labels:
Bos taurus = species: Bos taurus; experiment: Inhibition of Bos taurus (bovine) heart submitochondrial NADH complex 1 at 12 nM by NADH oxidase assay
[1] = Inhibition of Bos taurus (bovine) heart submitochondrial NADH complex 1 by NADH oxidase assay

Compound | inhibition (Bos taurus) [%] | IC50 [1] [nM]
O=C1N[C@H]2[C@H](CS[C@H]2CCCCC(=O)OCCCCCCC[C@@H](O)[C@H]2CC[C@H]([C@H]3CC[C@H]([C@H](O)CCCCCCOc4ccc(C5(C(F)(F)F)N=N5)cc4)O3)O2)N1 | > 95 | 3.9
CCCCCCCCCC[C@@H](O)[C@H]1CC[C@H]([C@H]2CC[C@H]([C@H](O)CCCCCCCCCC)O2)O1 [dleta-lac-Acetogenin] | – | 1.8
